Experiments:
[1] = system: human lung cancer strain NCI-H441; assay type: cell-based
Outline: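 Readout: […] after the ATP-based reagent. Compound: serial dilutions in dimethyl sulfoxide.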

[2] = target: GDP-bound NRAS wild-type protein (Homo sapiens, UniProt P01111); assay: Binding to NRAS by surface plasmon resonance (SPR), KD and KD ratio to KRAS
Outline: (§1)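 GDP-loaded biotinylated Avi-tag RAS proteins (E. coli-expressed) captured on a Biotin CAPture chip at ~100–300 RU; single-cycle kinetics at 30°C, 100 µL/min, 75 s injections of rising compound concentrations. HBS pH 7.4 running buffer with 1 mM DTT, 10 mM MgCl2, 10 µM GDP, 4% DMSO. KD from 1:1 binding fit.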

HRAS wild-type protein = HRAS wild-type protein (Homo sapiens, UniProt P01112); assay: Binding to HRAS by surface plasmon resonance (SPR), KD and KD ratio to KRAS
Outline: as §1

[3] = ratio of KD value for GDP-bound NRAS wild-type protein to KD value for KRAS (SPR)
[4] = ratio of KD value for HRAS wild-type protein to KD value for KRAS (SPR)
[5] = ratio of the KD value with respect to GDP-bound NRAS wild-type protein to the KD value with respect to KRAS
[6] = ratio of the KD value with respect to HRAS wild-type protein to the KD value with respect to KRAS

Sequence of HRAS wild-type protein (P01112 whole entry): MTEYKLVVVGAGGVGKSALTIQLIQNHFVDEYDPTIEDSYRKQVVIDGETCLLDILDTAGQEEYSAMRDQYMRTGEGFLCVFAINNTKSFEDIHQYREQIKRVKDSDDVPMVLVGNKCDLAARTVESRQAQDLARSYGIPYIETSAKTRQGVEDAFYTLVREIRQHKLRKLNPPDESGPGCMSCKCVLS
Sequence of GDP-bound NRAS wild-type protein (P01111 whole entry): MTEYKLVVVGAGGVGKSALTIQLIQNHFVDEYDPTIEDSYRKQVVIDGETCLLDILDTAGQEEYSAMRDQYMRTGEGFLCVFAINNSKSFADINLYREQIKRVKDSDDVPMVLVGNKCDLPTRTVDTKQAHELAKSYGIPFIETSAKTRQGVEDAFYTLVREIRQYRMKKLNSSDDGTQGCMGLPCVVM

IC50 [1] [nM] | SMILES | NRAS /KRAS [2, 3] | HRAS /KRAS (HRAS wild-type protein; [4]) | NRAS /KRAS [2, 5] | HRAS /KRAS (HRAS wild-type protein; [6]) | further results
2.3 | CCO[C@@H]1C[C@H]2C(=O)NC3(CC(C)(C)C3)C(=O)N(C)[C@@H](C3CCCC3)C(=O)N(C)[C@H](C(=O)N(C)C)CC(=O)N(C)[C@@H](CC(F)F)C(=O)N[C@@H]([C@@H](C)CC)C(=O)N(C)CC(=O)N(C)[C@H]3C/C=C\CCN(C3=O)[C@@H](Cc3ccc(C(F)(F)F)cc3)C(=O)N(C)CC(=O)N[C@@H](CCc3ccc(C(F)(F)F)c(Cl)c3)C(=O)N2C1 [PP1747] | A (a compound having 10 or more and less than 20 is denoted as A) | A (a compound having 10 or more and less than 20 is denoted as A) | – | – | –
9.2 | CCC[C@H]1C(=O)N[C@@H]([C@@H](C)CC)C(=O)N(C)CC(=O)N(C)[C@H]2C/C=C\CCN(C2=O)[C@@H](Cc2ccc(C(F)(F)F)cc2)C(=O)N(C)CC(=O)N[C@@H](CCc2cc(F)c(C(F)(F)F)c(F)c2)C(=O)N2C[C@H](OCC)C[C@H]2C(=O)NC2(CC(C)(C)C2)C(=O)N(C)[C@@H]([C@@H](C)CC)C(=O)N(C)[C@H](C(=O)N(C)C)CC(=O)N1C [PP1941] | – | – | A (a compound having 10 or more and less than 20 is denoted as A) | A (a compound having 10 or more and less than 20 is denoted as A) | –
5.1 | CCO[C@@H]1C[C@H]2C(=O)NC3(CC(F)(F)C3)C(=O)N(C)[C@@H](C3CCCC3)C(=O)N(C)[C@H](C(=O)N(C)CC)CC(=O)N(C)[C@@H](CC3CC3)C(=O)N[C@@H]([C@@H](C)CC)C(=O)N(C)CC(=O)N(C)[C@H]3C/C=C\CCN(C3=O)[C@@H](Cc3ccc(C(F)(F)F)cc3)C(=O)N(C)CC(=O)N[C@@H](CCc3cc(F)c(C(F)(F)F)c(F)c3)C(=O)N2C1 [PP1738] | AA (a compound having 20 or more is denoted as AA) | A (a compound having 10 or more and less than 20 is denoted as A) | – | – | –
5 | CCO[C@@H]1C[C@H]2C(=O)NC3(CC(C)(C)C3)C(=O)N(C)[C@@H](C3CCCC3)C(=O)N(C)[C@H](C(=O)N(C)CC)CC(=O)N(C)[C@@H](CC(C)C)C(=O)N[C@@H]([C@@H](C)CC)C(=O)N(C)CC(=O)N(C)[C@H]3C/C=C\CCN(C3=O)[C@@H](Cc3ccc(C(F)F)cc3)C(=O)N(C)CC(=O)N[C@@H](CCc3ccc(C(F)(F)F)c(OC)c3)C(=O)N2C1 [PP2828] | – | – | – | – | NRAS /KRAS ([2]; ratio of KD for GDP-bound NRAS wild-type protein to KD for KRAS): A (a compound having 10 or more and less than 20 is denoted as A); HRAS /KRAS (HRAS wild-type protein; ratio of KD for HRAS wild-type protein to KD for KRAS): A (a compound having 10 or more and less than 20 is denoted as A)
17.7 | CC[C@H](C)[C@@H]1NC(=O)[C@H](CC)N(C)C(=O)C[C@@H](C(=O)N(C)CC)N(C)C(=O)[C@H](C2CCCC2)N(C)C(=O)C2(CCC2)NC(=O)[C@@H]2C[C@@H](C)CN2C(=O)[C@H](CCc2ccc(C(F)(F)F)c(OC)c2)NC(=O)CN(C)C(=O)[C@H](Cc2ccc(C)cc2)N2CC/C=C\C[C@@H](C2=O)N(C)C(=O)CN(C)C1=O [PP1855] | AA (a compound having 20 or more is denoted as AA) | A (a compound having 10 or more and less than 20 is denoted as A) | – | – | –
30.2 | CCCN1C(=O)[C@H](C2CCCC2)N(C)C(=O)C2(CCC2)NC(=O)[C@@H]2C[C@@H](OCC)CN2C(=O)[C@H](CCc2cc(F)c(C(F)(F)F)c(F)c2)NC(=O)CN(C)C(=O)[C@H](Cc2ccc(C(F)(F)F)cc2)N2CCCC[C@@H](C2=O)N(C)C(=O)CN(C)C(=O)[C@H]([C@@H](C)CC)NC(=O)[C@H](CC(C)C)N(C)C(=O)C[C@H]1C(=O)N1CCOCC1 [PP0649] | – | – | C (A compound having a KD ratio of 0.1 or more and less than 3 is denoted as C) | B (a compound having 3 or more and less than 10 is denoted as B) | –
50 | CCCN(C)C(=O)[C@@H]1CC(=O)N(C)[C@@H](CCOC)C(=O)N[C@@H]([C@@H](C)CC)C(=O)N(C)CC(=O)N(C)[C@H]2C/C=C\CCN(C2=O)[C@@H](Cc2ccc(C(F)(F)F)cc2)C(=O)N(C)CC(=O)N[C@@H](CCc2cc(F)c(C(F)(F)F)c(F)c2)C(=O)N2C[C@@H](C)C[C@H]2C(=O)NC2(CC(C)(C)C2)C(=O)N(C)[C@@H](C2CCCC2)C(=O)N1C [PP1974] | – | – | A (a compound having 10 or more and less than 20 is denoted as A) | A (a compound having 10 or more and less than 20 is denoted as A) | –
6.4 | CC[C@H](C)[C@@H]1NC(=O)[C@H](CC(C)C)N(C)C(=O)C[C@@H](C(=O)N(C)C)N(C)C(=O)[C@H](C2CCCC2)N(C)C(=O)C2(CC(C)(C)C2)NC(=O)[C@@H]2C[C@H](C)CN2C(=O)[C@H](CCc2cc(F)c(C(F)(F)F)c(F)c2)NC(=O)CN(C)C(=O)[C@H](Cc2ccc(C(F)(F)F)cc2)N2CC/C=C\C[C@@H](C2=O)N(C)C(=O)CN(C)C1=O [PP1662] | A (a compound having 10 or more and less than 20 is denoted as A) | B (a compound having 3 or more and less than 10 is denoted as B) | – | – | –
55.9 | CCO[C@@H]1C[C@H]2C(=O)NC3(CCCC3)C(=O)N(C)[C@@H](C3CCCC3)C(=O)N(C)[C@H](C(=O)N(C)C)CC(=O)N(C)[C@@H](CC)C(=O)N[C@@H]([C@@H](C)CC)C(=O)N(C)CC(=O)N(C)[C@H]3C/C=C\CCN(C3=O)[C@@H](Cc3ccc(C(F)(F)F)cc3)C(=O)N(C)CC(=O)N[C@@H](CCc3cc(C)c(Cl)c(C)c3)C(=O)N2C1 [PP1823] | A (a compound having 10 or more and less than 20 is denoted as A) | A (a compound having 10 or more and less than 20 is denoted as A) | – | – | –
4.7 | CCO[C@@H]1C[C@H]2C(=O)NC3(CCC3)C(=O)N(C)[C@@H](C3CCCC3)C(=O)N(C)[C@H](C(=O)N(C)CC)CC(=O)N(C)[C@@H](CC3CC3)C(=O)N[C@@H]([C@@H](C)CC)C(=O)N(C)CC(=O)N(C)[C@H]3C/C=C\CCN(C3=O)[C@@H](Cc3ccc(C(F)(F)F)cc3)C(=O)N(C)CC(=O)N[C@@H](CCc3cc(F)c(C(F)(F)F)c(F)c3)C(=O)N2C1 [PP1301] | – | – | – | – | NRAS /KRAS ([2]; ratio of KD with respect to GDP-bound NRAS wild-type protein to KD with respect to KRAS): A (a compound having 10 or more and less than 20 is denoted as A); HRAS /KRAS (HRAS wild-type protein; ratio of KD with respect to HRAS wild-type protein to KD with respect to KRAS): A (a compound having 10 or more and less than 20 is denoted as A)
85.2 | CCO[C@@H]1C[C@H]2C(=O)NC3(CC=CC3)C(=O)N(C)[C@@H](C3CCCC3)C(=O)N(C)[C@H](C(=O)N3CCOCC3)CC(=O)N(C)[C@@H](CC(C)C)C(=O)N[C@@H]([C@@H](C)CC)C(=O)N(C)CC(=O)N(C)[C@H]3CCCCCN(C3=O)[C@@H](Cc3ccc(C(F)(F)F)cc3)C(=O)N(C)CC(=O)N[C@@H](CCc3cc(F)c(C(F)(F)F)c(F)c3)C(=O)N2C1 [PP0727] | – | – | B (a compound having 3 or more and less than 10 is denoted as B) | B (a compound having 3 or more and less than 10 is denoted as B) | –
11.2 | CCCN(C)C(=O)[C@@H]1CC(=O)N(C)[C@@H](C2CC2)C(=O)N[C@@H]([C@@H](C)CC)C(=O)N(C)CC(=O)N(C)[C@H]2C/C=C\CCN(C2=O)[C@@H](Cc2ccc(C(F)(F)F)cc2)C(=O)N(C)CC(=O)N[C@@H](CCc2cc(F)c(C(F)(F)F)c(F)c2)C(=O)N2C[C@@H](C)C[C@H]2C(=O)NC2(CCC2)C(=O)N(C)[C@@H](C2CCCC2)C(=O)N1C [PP2081] | – | – | A (a compound having 10 or more and less than 20 is denoted as A) | A (a compound having 10 or more and less than 20 is denoted as A) | –
